Data taken from patent EP4803083A1, “USE OF PYRROLOTRIAZINE COMPOUND IN PREPARATION OF DRUG FOR PREVENTING AND/OR TREATING FIBROSIS OR RELATED DISEASE THEREOF” (Jumbo Drug Bank Co., Ltd., priority 2023, dated 2025).

Tests used:
[1] = tested on: Liver spheroids; experiment: In vitro 3D liver NASH model: H&E staining; assay type: cell-based, human; conditions: compared with the NASH group
Description: (§1) Four types of human primary cells were used for modeling, including human primary hepatocytes (PHH), human primary liver sinusoidal endothelial cells (LSEC), human primary hepatic stellate cells (HSC), and human primary Kupffer cells (KC). The total number of cells in each model was 3000.
(§2) The cell connector NAC-Linker A was mixed with hepatocytes and incubated at room temperature for 30 minutes so that NAC-Linker A was fixed on the cell membrane surface. At the same time, the cell connector NAC-Linker B was mixed with the mixture of intrahepatic non-parenchymal cells and incubated at room temperature for 30 minutes so that NAC-Linker B was fixed on the cell membrane surface; (2) after incubation, the hepatocytes carrying NAC-Linker A and the intrahepatic non-parenchymal cells carrying NAC-Linker B were mixed evenly, and 20-30 µl droplets were prepared on the lid of a culture plate using a pipette. PBS solution and liver physiological culture medium (Puheng Biomedicine (Shanghai) Co., Ltd., liver physiological culture medium (human), catalog No. M0001) were added to the wells of the culture plate. The prepared culture plate lid was inverted and placed onto the culture plate to form hanging drops. The culture plate with hanging drops was placed upside down in a 37°C incubator for 12-24 hours. Under the curvature of the lower surface of the hanging drops and gravity, complementary DNA pairing in the NAC-Linker formed connections to generate a 3D liver organoid structure.
(§3) After successful modeling on Day 0, the samples were divided into 5 groups according to different treatments, with 9 samples in each group. […]
Using ImageJ software, the steatotic area on the slides after H&E staining was quantified, and the ratio of the steatotic area to the total area of each slide was calculated (results are shown in Figure 6).

[2] = tested on: bleomycin-induced mouse pulmonary fibrosis model; experiment: Bleomycin-induced pulmonary fibrosis model: lung fibrosis grading score (Masson staining, Ashcroft Score); assay type: in vivo, C57BL/6 mice; conditions: endpoint 28 days, compared with the vehicle-treated group, p value <0.05
Description: (§4) Experimental preparation: C57BL/6 mice, 8-10 weeks old, female, body weight approximately 18-22 g. Bleomycin. 1% sodium pentobarbital, sterile normal saline, insulin syringe.
(§5) Drug: p-toluenesulfonate salt of Compound 12 (10 mg/mL). The specific drug preparation method was as follows: 282.87 mg of the p-toluenesulfonate salt powder of Compound 12 was weighed and mixed with 1.050 mL of DMSO solution (preheated to 45°C). The mixture was placed in an ultrasonic water bath until completely dissolved. Subsequently, 19.95 mL of mixed solvent (comprising 1.995 mL of Solutol, 1.995 g of hydroxypropyl-β-cyclodextrin, and 15.96 mL water ) was added. The resulting mixture was sonicated again until completely dissolved to obtain a working solution with a concentration of 10 mg/mL. 1. After the mice begin to adapt to the environment, the experiment is started. The experimental animals are divided into five groups: normal control group, model group (Bleomycin group), low-dose treatment group (25 mg/kg), high-dose treatment group (50 mg/kg), and vehicle treatment group. […]
(§6) 5. […] According to the time point, the mice were euthanized and samples were collected for subsequent experiments; the day of modeling is recorded as day 1. […]

[3] = tested on: IL-6; experiment: In vitro 3D liver NASH model: cytokine detection (IL-6); assay type: cell-based, human; conditions: 60 nM; culture medium supernatant; compared with the NASH group; significant difference p<0.05
Description: as §1
as §2, with “The culture plate with hanging drops was placed upside down in a 37°C incubator for 12-24 hours. Under the curvature of the lower surface of the hanging drops and gravity, complementary DNA pairing in the NAC-Linker formed connections to generate a 3D liver organoid structure.” left out
The culture medium supernatant was collected and tested using an IL-6 detection kit according to the manufacturer's instructions, with measurement performed using a microplate reader.

[4] = tested on: Liver spheroids; experiment: In vitro 3D liver NASH model: TG detection; assay type: cell-based, human; conditions: 60 nM; Day 10; compared with the NASH group; p<0.05
Description: as §1
as §2, with “Under the curvature of the lower surface of the hanging drops and gravity, complementary DNA pairing in the NAC-Linker formed connections to generate a 3D liver organoid structure.” left out

[5] = tested on: bleomycin-induced mouse pulmonary fibrosis model; experiment: Bleomycin-induced pulmonary fibrosis model: lung inflammation scoring (HE staining, Szapiel Score); assay type: in vivo, C57BL/6 mice; conditions: high-dose group (50 mg/kg); endpoint 28 days; compared with the vehicle treatment group; p value<0.05
Description: as §4, §5, §6

[6] = tested on: COL1 and α-SMA; experiment: In vitro 3D liver NASH model: COL1 and α-SMA immunofluorescence staining; assay type: cell-based, human; conditions: 10 nM, 30 nM and 60 nM groups
Description: as §1
as §2, with “The prepared culture plate lid was inverted and placed onto the culture plate to form hanging drops. The culture plate with hanging drops was placed upside down in a 37°C incubator for 12-24 hours. Under the curvature of the lower surface of the hanging drops and gravity, complementary DNA pairing in the NAC-Linker formed connections to generate a 3D liver organoid structure.” left out
Liver spheroids were paraffin-embedded and sectioned, subjected to immunofluorescence staining, mounted, and photographed under a fluorescence microscope, and the results are shown in Figure 5

[7] = tested on: Liver spheroids; experiment: In vitro 3D liver NASH model: Sirius Red staining; assay type: cell-based, human; conditions: for Sirius Red staining: fibrosis area in the liver spheroids: compared with the NASH group
Description: as §1, §2, §3
Using ImageJ software, the fibrosis area on the slides after Sirius Red staining was quantified, and the ratio of the fibrosis area to the total area of each slide was calculated (Figure 7).

With `Cc1cc(Nc2ncnn3cc(OCCN4CCC(F)(F)C4)c(C)c23)c(=O)n2c1C(=O)NC21CCCC1` [Compound 12 p-toluenesulfonate] the “H&E staining: hepatocyte steatosis and ballooning degeneration” value (shortened to “H&E staining”) ([1]; 10 nM) was “improvement in hepatocyte steatosis and ballooning degeneration”, the “H&E staining” value ([1]; 30 nM) was “significant histological improvement” and the “H&E staining” value ([1]; 60 nM) was “significant histological improvement”. The “Ashcroft Scores of lung tissue fibrosis” value ([2]; high-dose group (50 mg/kg)) was “significantly lower scores”, the “Ashcroft Scores of lung tissue fibrosis” value ([2]; low-dose group (25 mg/kg)) was “significantly lower scores” and the “inflammatory cytokine level (IL-6)” value [3] was “improved”. The TG level [4] was “significant difference”, the “Szapiel Score of lung tissue fibrosis” value [5] was “significantly lower score” and the “COL1 and α-SMA immunofluorescence staining” value [6] was “therapeutic effect on liver fibrosis and exhibits dose dependence”. For the same compound, the “Sirius Red staining: degree of liver fibrosis” value ([7]; 10 nM, compared with the normal control group (so in the source)) was “trend of improvement”, the “Sirius Red staining: fibrosis area in the liver spheroids” value ([7]; 30 nM) was “significant differences” and the “Sirius Red staining: fibrosis area in the liver spheroids” value ([7]; 60 nM) was “significant differences”.
